Assay results published in the NIST ThermoML archive (doi:10.1016/j.jct.2017.05.001).

Assay: wn = mass fraction of the nth substance listed
Settings: Liquid; for mass density: Vibrating tube method

OCCNCCO [diethanolamine] + O
viscosity [mPa·s]
Settings	w1 = 0.0993	w1 = 0.1	w1 = 0.2	w1 = 0.3	w1 = 0.3002	w1 = 0.3997	w1 = 0.4
293.15 K, 100 kPa, Concentric cylinders viscometry	–	1.486	2.287	3.621	–	–	6.311
293.15 K, 100 kPa, Falling or rolling sphere viscometry	1.493	–	2.219	–	3.633	6.248	–
293.15 K, 5000 kPa, Falling or rolling sphere viscometry	1.49	–	2.215	–	3.617	6.351	–
293.15 K, 10000 kPa, Falling or rolling sphere viscometry	1.486	–	2.214	–	3.635	6.416	–
293.15 K, 15000 kPa, Falling or rolling sphere viscometry	1.49	–	2.217	–	3.634	6.463	–
293.15 K, 20000 kPa, Falling or rolling sphere viscometry	1.487	–	2.217	–	3.661	6.534	–
293.15 K, 25000 kPa, Falling or rolling sphere viscometry	1.488	–	2.218	–	3.676	6.598	–
293.15 K, 30000 kPa, Falling or rolling sphere viscometry	1.487	–	2.22	–	3.688	6.6	–
293.15 K, 40000 kPa, Falling or rolling sphere viscometry	1.486	–	2.221	–	3.714	6.683	–
293.15 K, 60000 kPa, Falling or rolling sphere viscometry	1.487	–	2.242	–	3.766	6.853	–
293.15 K, 80000 kPa, Falling or rolling sphere viscometry	1.49	–	2.26	–	3.818	6.973	–
293.15 K, 100000 kPa, Falling or rolling sphere viscometry	1.494	–	2.277	–	3.874	7.169	–
313.15 K, 100 kPa, Concentric cylinders viscometry	–	0.914	1.343	1.977	–	–	3.197
313.15 K, 100 kPa, Falling or rolling sphere viscometry	0.9237	–	1.304	–	1.98	3.168	–
313.15 K, 5000 kPa, Falling or rolling sphere viscometry	0.915	–	1.292	–	1.976	3.174	–
313.15 K, 10000 kPa, Falling or rolling sphere viscometry	0.9172	–	1.296	–	1.983	3.222	–
313.15 K, 15000 kPa, Falling or rolling sphere viscometry	0.9188	–	1.301	–	1.993	3.248	–
313.15 K, 20000 kPa, Falling or rolling sphere viscometry	0.9192	–	1.303	–	2.004	3.239	–
313.15 K, 25000 kPa, Falling or rolling sphere viscometry	0.9215	–	1.309	–	2.012	3.28	–
313.15 K, 30000 kPa, Falling or rolling sphere viscometry	0.9226	–	1.312	–	2.022	3.303	–
313.15 K, 40000 kPa, Falling or rolling sphere viscometry	0.9253	–	1.318	–	2.039	3.361	–
313.15 K, 60000 kPa, Falling or rolling sphere viscometry	0.9334	–	1.335	–	2.08	3.438	–
313.15 K, 80000 kPa, Falling or rolling sphere viscometry	0.9414	–	1.353	–	2.119	3.538	–
313.15 K, 100000 kPa, Falling or rolling sphere viscometry	0.9509	–	1.371	–	2.158	3.625	–
333.15 K, 100 kPa, Concentric cylinders viscometry	–	0.64	0.871	1.248	–	–	1.864
333.15 K, 100 kPa, Falling or rolling sphere viscometry	0.6268	–	0.8581	–	1.247	1.885	–
333.15 K, 5000 kPa, Falling or rolling sphere viscometry	0.6258	–	0.8575	–	1.243	1.872	–
333.15 K, 10000 kPa, Falling or rolling sphere viscometry	0.6274	–	0.8602	–	1.248	1.886	–
333.15 K, 15000 kPa, Falling or rolling sphere viscometry	0.6269	–	0.8632	–	1.254	1.9	–
333.15 K, 20000 kPa, Falling or rolling sphere viscometry	0.6303	–	0.8673	–	1.258	1.912	–
333.15 K, 25000 kPa, Falling or rolling sphere viscometry	0.6312	–	0.8717	–	1.265	1.896	–
333.15 K, 30000 kPa, Falling or rolling sphere viscometry	0.6339	–	0.8763	–	1.271	1.943	–
333.15 K, 40000 kPa, Falling or rolling sphere viscometry	0.6383	–	0.8845	–	1.283	1.973	–
333.15 K, 60000 kPa, Falling or rolling sphere viscometry	0.6452	–	0.8989	–	1.312	2.029	–
333.15 K, 80000 kPa, Falling or rolling sphere viscometry	0.6532	–	0.9136	–	1.337	2.086	–
333.15 K, 100000 kPa, Falling or rolling sphere viscometry	0.6623	–	0.9264	–	1.365	2.136	–

mass density [kg/m3]
Settings	w1 = 0.0993	w1 = 0.2	w1 = 0.3002	w1 = 0.3997
293.15 K, 100 kPa	1009.4	1021.6	1034.5	1047.5
293.15 K, 500 kPa	1009.5	1021.7	1034.7	1047.7
293.15 K, 1000 kPa	1009.7	1021.9	1034.8	1047.9
293.15 K, 2000 kPa	1010.2	1022.3	1035.2	1048.2
293.15 K, 5000 kPa	1011.4	1023.5	1036.3	1049.3
293.15 K, 10000 kPa	1013.6	1025.5	1038.2	1051
293.15 K, 15000 kPa	1015.6	1027.4	1040	1052.8
293.15 K, 20000 kPa	1017.7	1029.4	1041.8	1054.5
293.15 K, 30000 kPa	1021.8	1033.3	1045.4	1058
293.15 K, 40000 kPa	1025.9	1037	1049	1061.4
293.15 K, 50000 kPa	1029.7	1040.7	1052.5	1064.7
293.15 K, 60000 kPa	1033.6	1044.4	1055.9	1068
293.15 K, 70000 kPa	1037.6	1048	1059.3	1071.2
293.15 K, 80000 kPa	1041.1	1051.4	1062.5	1074.3
293.15 K, 90000 kPa	1044.8	1054.9	1065.8	1077.4
293.15 K, 100000 kPa	1048.5	1058.4	1069.1	1080.6
293.15 K, 110000 kPa	1051.9	1061.6	1072.1	1083.5
293.15 K, 120000 kPa	1055.4	1064.9	1075.3	1086.5
293.15 K, 130000 kPa	1059	1068.3	1078.5	1089.6
293.15 K, 140000 kPa	1062.2	1071.4	1081.4	1092.4
313.15 K, 100 kPa	1002.9	1014.3	1026	1038
313.15 K, 500 kPa	1003.1	1014.4	1026.2	1038.2
313.15 K, 1000 kPa	1003.4	1014.6	1026.4	1038.4
313.15 K, 2000 kPa	1003.7	1015	1026.7	1038.7
313.15 K, 5000 kPa	1005	1016.2	1027.9	1039.8
313.15 K, 10000 kPa	1007	1018.2	1029.7	1041.7
313.15 K, 15000 kPa	1009	1020.1	1031.6	1043.4
313.15 K, 20000 kPa	1011	1022	1033.4	1045.1
313.15 K, 30000 kPa	1015.1	1025.8	1037.1	1048.7
313.15 K, 40000 kPa	1019.1	1029.7	1040.7	1052.3
313.15 K, 50000 kPa	1022.8	1033.2	1044.1	1055.6
313.15 K, 60000 kPa	1026.6	1036.9	1047.6	1059
313.15 K, 70000 kPa	1030.4	1040.4	1051	1062.2
313.15 K, 80000 kPa	1033.9	1043.8	1054.3	1065.4
313.15 K, 90000 kPa	1037.3	1047.1	1057.5	1068.5
313.15 K, 100000 kPa	1040.9	1050.6	1060.8	1071.6
313.15 K, 110000 kPa	1044.4	1053.9	1063.9	1074.7
313.15 K, 120000 kPa	1047.7	1057.1	1067.1	1077.7
313.15 K, 130000 kPa	1051.1	1060.3	1070.2	1080.7
313.15 K, 140000 kPa	1054.4	1063.5	1073.3	1083.6
333.15 K, 100 kPa	993.4	1004.2	1015.4	1026.6
333.15 K, 500 kPa	993.7	1004.4	1015.5	1026.8
333.15 K, 1000 kPa	993.9	1004.6	1015.7	1027
333.15 K, 2000 kPa	994.3	1005	1016.2	1027.4
333.15 K, 5000 kPa	995.5	1006.2	1017.3	1028.5
333.15 K, 10000 kPa	997.6	1008.2	1019.3	1030.4
333.15 K, 15000 kPa	999.6	1010.2	1021.2	1032.3
333.15 K, 20000 kPa	1001.6	1012.1	1023.1	1034.2
333.15 K, 30000 kPa	1005.7	1016	1026.9	1037.8
333.15 K, 40000 kPa	1009.7	1020	1030.6	1041.6
333.15 K, 50000 kPa	1013.4	1023.6	1034.1	1045
333.15 K, 60000 kPa	1017.2	1027.1	1037.7	1048.4
333.15 K, 70000 kPa	1020.9	1030.8	1041.1	1051.8
333.15 K, 80000 kPa	1024.5	1034.2	1044.4	1055
333.15 K, 90000 kPa	1028	1037.5	1047.7	1058.2
333.15 K, 100000 kPa	1031.5	1041	1051.1	1061.5
333.15 K, 110000 kPa	1034.9	1044.2	1054.3	1064.6
333.15 K, 120000 kPa	1038.4	1047.7	1057.5	1067.8
